According to publication PMC2645951 (Bioconjugate chemistry, 2008):
Where two headings read alike, the source gives them in different places. Where a SMILES comes first, the peptide text is derived from it. The star is where a group is joined. X1 = COc1cc2c3cc1OCCOc1cc4c(cc1OC)Cc1cc5c(OC)cc1Cc1cc(c(OCc6cn(CCOCCOCCOCCOCCOCCOCCOCCOCCNC(=O)COCC(=O)*)nn6)cc1C4)OCCOc1cc(c(cc1OC)Cc1cc(c(OC)cc1C3)OCCO5)C2

What was measured:
[1] = background statement of the introduction, no reference given; cited from earlier work
[2] = Water solubility; type: physicochemical
[3] = tested on: HEK cells; settings: over a similar range of concentrations; cited from earlier work

For `COc1cc2c3cc1OCCOc1cc4c(cc1OC)Cc1cc5c(OC)cc1Cc1cc(c(OC)cc1C4)OCCOc1cc(c(cc1OC)C3)Cc1cc(OC)c(cc1C2)OCCO5` [Cryptophane-A], which “water solubility (in words)” value [1] is on record?
Its value is “poor (low micromolar)”.

Which “water solubility (in words)” value [2] does the source give for `COc1cc2c3cc1OCCOc1cc4c(cc1OC)Cc1cc5c(OC)cc1Cc1cc(c(OCc6cn(CCOCCOCCOCCOCCOCCOCCOCCOCCNC(=O)COCC(=O)N[C@@H](CS)C(=O)N[C@@H](CCCNC(=N)N)C(=O)NCC(=O)N[C@@H](CC(=O)O)C(=O)N[C@@H](CCCNC(=N)N)C(=O)NCC(=O)N[C@@H](CC(=O)O)C(=O)N[C@@H](CCCNC(=N)N)C(=O)NCC(=O)N[C@@H](CC(=O)O)C(=O)N[C@@H](CCCNC(=N)N)C(=O)NCC(=O)N[C@@H](CC(=O)O)C(=O)O)nn6)cc1C4)OCCOc1cc(c(cc1OC)Cc1cc(c(OC)cc1C3)OCCO5)C2` [III] (X1-CRGDRGDRGDRGD-OH; C-terminus assumed) here?
The value was “limited solubility”.

With `c12c3c4c5c1c1c6c7c2c2c8c3c3c9c4c4c%10c5c5c1c1c6c6c%11c7c2c2c7c8c3c3c8c9c4c4c9c%10c5c5c1c1c6c6c%11c2c2c7c3c3c8c4c4c9c5c1c1c6c2c3c41` [fullerene C60] as the compound, how does the “decrease in viability of HEK cells” value [3] read?
Its value is 10-50%.
